Results reported in US10835605B2, “Preparations of poly(lactic-co-glycolic acid)/polydopamine core/shell hybrid nanoparticle for photothermal applications” (UNIVERSITY OF SOUTH CAROLINA, priority 2015, dated 2020).

Key:
UMSCC 22A cells [1] = experiment: In vitro cytotoxicity (MTT cell proliferation assay) with or without NIR irradiation; format: cell-based; details: FIG. 9
Method: The cytotoxicity of nanoparticles was evaluated by MTT assay. UMSCC 22A cells were seeded in 96-well plate (20,000 cells/well) for 24 h prior to the study. Following, either free DOX or DOX@PLGA/PD-PEG nanoparticles with DOX concentration equal to 2, 5 and 10 μg/mL were added. For comparison, PLGA/PD-PEG (no DOX encapsulation) nanoparticles were also added. The cells were then incubated 3 h in 95/5% air/CO2 at 37° C. followed by irradiation under a 808 nm laser for 10 min. After that, all wells were washed 2 times and replaced with fresh culture medium and kept incubation for another 24 h. Finally, MTT reagent (100 μL, 10%(w/w) in medium) was added and incubated for 4h, following the addition of MTT stop solution and the measurement of the optical density of the medium using a microplate reader (ELX808, Bio-Tech Instrument, Inc.) at λ=595 nm.

[2] = TEM analysis of heart tissue (cardiotoxicity); format: in vivo, mice; details: hearts collected after 24 days; DOX@PLGA/PD-C coupled with NIR irradiation
Method: To study the cardiotoxicity of DOX, the hearts of the mice were analyzed by TEM. The formalin fixed samples were further fixed with 1% perosmic oxide for 2 h at 4° C., washed with water and then dehydrated in a series of alcohol solutions, embedded, and sliced with the thickness between 50 and 70 nm. TEM analysis was performed on Hitachi H8000 operating at 200 kV.

UMSCC 22A cells [3] = experiment: Tumor growth inhibitory assay, subcutaneous head and neck cancer mouse model; format: in vivo, female Balb/c nude mice
Method: UMSCC 22A cells (3×10^6 cells in 100 μL DMEM medium) were inoculated subcutaneously in female Balb/c nude mice (8-10 week old, ˜20 g, Jackson Laboratory). The tumor volume was measured by a digital caliper and calculated according to the following formula: Tumor volume=tumor length)×(tumor width)^2/2. […] For the control group, PBS was injected. Mice were exposed to an 808 nm laser irradiation (2.83 W/cm^2) 3 h post injection for 10 min. The temperature of the mice during the irradiation was recorded by the FLIR thermal camera. The tumor volumes (V) of the mice were measured every other day for 24 days. The relative tumor volume expressed as V/V0 (V0 was the tumor volume when the treatment was initiated) was used to represent the tumor size change during the whole treatment process. After 24 days, the mice were sacrificed and the blood, tumor, liver, heart, lung, kidneys, and spleen were collected for further analysis. All organs were firstly fixed in 10% neutral buffered formalin for 48 h and then washed with PBS and finally kept in 70% ethanol at 4° C.

UMSCC 22A cells [4] = experiment: Cellular uptake by confocal microscopy and flow cytometry; format: cell-based; details: flow cytometry, 3 h incubation, FIG. 8
Method: UMSCC 22A cells (300,000cells/well) were seeded in 6-well plates overnight. After that, DOX, DOX@PLGA/PD-PEG, and DOX@PLGA/PD-C nanoparticles were added at the DOX equivalent concentration of 1 μg/m L. In order to investigate the effect of EGFR on the cellular uptake of DOX@PLGA/PD-C nanoparticle, cells were pretreated with free anti-EGFR antibody (200 μg/mL) 30 min before adding DOX@PLGA/PD-C nanoparticles. The plate was incubated at 37° C. for 3 h. Then cells were washed, trypsinized and resuspended in PBS. DOX-positive cell population was quantified at Ex=488 nm, Em=585 nm using flow cytometry (BD Accuri C6, BD Biosciences).

With `COc1cccc2c1C(=O)c1c(O)c3c(c(O)c1C2=O)C[C@@](O)(C(=O)CO)C[C@@H]3O[C@H]1C[C@H](N)[C@H](O)[C@H](C)O1` [free DOX, Doxorubicin] the “cell killing effect versus other treatments” value (UMSCC 22A cells [1]) was “higher cell killing effect than other treatments except at 10 μM dose”, the “heart tissue structure (mitochondria) by TEM” value [2] was “significantly compromised” and the “tumor recurrence / regrowth” value (UMSCC 22A cells [3]; 24-day observation) was “gradually bounced back 10 days post treatment”. The “tumor response after treatment” value (UMSCC 22A cells [3]; intratumoral, 40 μL, DOX equivalent 15 μg/mL, DOX@PLGA/PD-C coupled with NIR irradiation) was “only slightly reduced tumor size”, the “H&E staining of tumor tissue” value (UMSCC 22A cells [3]; tumors collected after 24 days) was “kept the characteristics of squamous cell carcinoma” and the “speed of entry into cancer cells” value (UMSCC 22A cells [4]) was “entered cancer cells faster than the DOX@PLGA/PD-C nanoparticles”.
